The values that follow come from paper PMC7790953 (ACS chemical neuroscience, 2020).

For assay [1], the target named is 9B1. The assay is classed as binding, mouse. The note with it: for Kd: read-out: Kd as printed in text (9B1); for Ki: read-out: Ki (9B1), pH 7.4.
For the next assay, the target named is h9B1. The format is binding. To be noted: for Kd: read-out: Kd as printed in text (h9B1); for Ki: read-out: Ki (h9B1), pH 7.4.
Assay [2] relates to 9B1. The note with it: estimated in original report; cited from earlier work.
The next assay has as its system Ab15. The note with it: ref SI Table S2; cited from earlier work.

“Also recorded” adds a separate entry of the source.

By Kd is commonly meant the concentration at which binding is half-saturated. A word on the Ki: it is a dissociation constant, usually derived from enzyme kinetics or from competition with a known ligand. As to `CC(=O)O[C@H]1C=C[C@H]2[C@H]3Cc4ccc(O)c5c4[C@@]2(CCN3C)[C@H]1O5` [6-MAM, 6-monoacetylmorphine], at 9B1 [1], the Kd was 4.8 nM and the inhibition constant Ki came to 4.8 nM. Besides, at h9B1, the Kd was found to be 11.9 nM and the Ki is 11.9 nM.
With `CC(=O)Oc1ccc2c3c1O[C@H]1[C@@H](OC(C)=O)C=C[C@H]4[C@@H](C2)N(C)CC[C@@]341` [heroin], at 9B1 [1], the equilibrium dissociation constant (Kd) came out at 1.3 nM and the inhibition constant Ki is 1.3 nM. For the same compound, on h9B1, the equilibrium dissociation constant (Kd) is 11.8 nM and the Ki amounted to 11.8 nM.
`COc1ccc2c3c1O[C@H]1C(=O)CC[C@H]4[C@@H](C2)N(C)CC[C@]314` [hydrocodone]: at 9B1 [1], the dissociation constant Kd came out at 8.2 nM and the Ki was 8.2 nM. Further, at h9B1, the Kd was determined as 39.3 nM and the Ki was determined as 39.3 nM.
`CN1CC[C@]23c4c5ccc(O)c4O[C@H]2[C@@H](O)C=C[C@H]3[C@H]1C5` [morphine]: the “Binding constant of 9B1 with morphine” value in the assay on 9B1 [2] is ~ 10^9 M^−1.
Take `C=CCN1CC[C@]23c4c5ccc(O)c4O[C@H]2C(=O)CC[C@@]3(O)[C@H]1C5` [naloxone]: in the assay with 9B1 [1], the “Binding with 9B1 in initial screening” value is given as “did not show significant binding affinities; also recorded: without significant binding”. In the assay on h9B1, the “Binding with h9B1 in initial screening” value was “did not show significant binding affinities; also recorded: without significant binding”.
Broadly, the IC50 is the midpoint of a concentration-inhibition curve. For `O=C1CC[C@@]2(O)[C@H]3Cc4ccc(O)c5c4[C@@]2(CCN3CC2CC2)[C@H]1O5` [naltrexone], in the assay on 9B1 [1], the “Binding with 9B1 in initial screening” value was “did not show significant binding affinities; also recorded: without significant binding” and the Ki is greater than 10000 nM. Besides, in the assay on h9B1, the “Binding with h9B1 in initial screening” value was “did not show significant binding affinities; also recorded: without significant binding” and the inhibition constant (Ki) is greater than 10000 nM. Moreover, in the assay with Ab15, the IC50 was 310 nM.
On to `COc1ccc2c3c1O[C@H]1C(=O)CC[C@@]4(O)[C@@H](C2)N(C)CC[C@]314` [oxycodone], for which the Ki came out at 2670 nM on 9B1 [1] and 6910 nM on h9B1.
For the compound buprenorphine, the “Binding with 9B1 in initial screening” value in the assay on 9B1 [1] is on record as “did not show significant binding affinities; also recorded: without significant binding”. The “Binding with h9B1 in initial screening” value with h9B1 is given as “did not show significant binding affinities; also recorded: without significant binding”.
